Source: ChEMBL document CHEMBL1201862, “PubChem BioAssay data set” (2004)
Active and inactive are the calls of the source.

Legend:
[1] = target: T1, Polyadenylate-binding protein 1 (Homo sapiens, UniProt P11940); experiment: MLLE binding blockers, Cy5 peptide tracer – biochemical, fluorescence polarization, Cy5-PAM2 peptide, secondary, miRNA deadenylation inhibitor project, dose response (AID 602260); assay type: functional; settings: read-out: IC50_Mean
[2] = target: T1, Polyadenylate-binding protein 1; experiment: MLLE domain peptide-binding blockers, IC50 – biochemical, fluorescence polarization, FITC-PAM2 peptide, dose response (AID 602259); assay type: functional; settings: read-out: IC50_Mean
Interleukin-8 [3] = target: T2, Interleukin-8 (Homo sapiens, UniProt P10145); experiment: Dose Response confirmation of uHTS small molecule hits for cystic fibrosis induced NFkb Inhibitors in a TNFa-induced IL8 counterscreen.; assay type: functional; settings: read-out: IC50_Mean
T2 sequence (P10145 whole entry): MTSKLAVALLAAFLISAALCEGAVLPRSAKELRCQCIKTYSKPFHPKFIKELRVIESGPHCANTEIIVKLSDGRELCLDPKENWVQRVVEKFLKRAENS

Interleukin-8 [4] = target: T2, Interleukin-8; experiment: Dose Response confirmation of uHTS small molecule hits for cystic fibrosis induced NFkb Inhibitors in a PAF-induced IL8 counterscreen.; assay type: functional; settings: read-out: IC50_Mean
Melanocortin receptor 4 = Melanocortin receptor 4 (Homo sapiens, UniProt P32245); assay type: functional, cell-based;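 also: Cell-based assay with luminescence read-out, confirmatory dose-response testing for agonist activity of biased ligands at MC4R; human U2OS cells with tagged receptor and beta-arrestin; potency of agonists that increase receptor coupling to beta-arrestin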
HEK293 = experiment: EBV LMP1 TES2 canonical NF-kB signalling blockers – cell-based, HEK293, luciferase, cherry-pick, dose response (AID 588343); assay type: functional; settings: Homo sapiens
[5] = target: T3, Latent membrane protein 1 (Human herpesvirus 4 (strain B95-8), UniProt P03230); experiment: LMP1 TES1 pathway selectivity over dsRED control – imaging, HEK293T, dual-color eGFP/dsRED, cherry-picks, selectivity assay for LMP1 NF-kB inhibitor project, dose response (AID 588398); assay type: functional, cell-based
T3 sequence (P03230 whole entry): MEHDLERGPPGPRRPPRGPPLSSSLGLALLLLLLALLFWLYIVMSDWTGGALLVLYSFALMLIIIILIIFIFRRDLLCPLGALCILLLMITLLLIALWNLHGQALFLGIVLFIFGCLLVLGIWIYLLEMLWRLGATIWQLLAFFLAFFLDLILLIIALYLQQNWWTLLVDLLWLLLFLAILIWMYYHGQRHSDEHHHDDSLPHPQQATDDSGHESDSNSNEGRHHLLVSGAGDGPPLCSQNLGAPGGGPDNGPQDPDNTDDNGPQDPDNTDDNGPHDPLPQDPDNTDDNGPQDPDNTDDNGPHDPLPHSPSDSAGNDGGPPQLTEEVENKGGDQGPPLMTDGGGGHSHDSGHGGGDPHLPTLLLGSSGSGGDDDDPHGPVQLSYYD

Vero = experiment: cells; assay type: functional; settings: Chlorocebus sabaeus
[6] = mouse fibroblast viability loss – cell-based, cherry-pick samples, set 2, cytotoxicity control for T. cruzi growth inhibitor project, dose response (AID 651817); assay type: functional; settings: NIH3T3
[7] = target: Delta-type opioid receptor (Homo sapiens, UniProt P41143); experiment: Counterscreen for agonists of heterodimerization of the mu 1 (OPRM1) and delta 1 (OPRD1) opioid receptors: Luminescence-based cell-based high throughput dose response assay to identify agonists of OPRD1 homodimerization. [Related pubchem assays (depositor defined):AID504326, AID504355, AID504692, AID504904, AID504905]; assay type: functional
Mu-type opioid receptor = Mu-type opioid receptor (Homo sapiens, UniProt P35372); experiment: Counterscreen for agonists of heterodimerization of the mu 1 (OPRM1) and delta 1 (OPRD1) opioid receptors: Luminescence-based cell-based high throughput dose response assay to identify agonists of OPRM1 homodimerization.; assay type: functional;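 also: U2OS cells expressing OPRM1 and beta-arrestin as split beta-galactosidase partners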
[8] = target: 5-hydroxytryptamine receptor 5A (Homo sapiens, UniProt P47898); experiment: Counterscreen for agonists of OPRM1-OPRD1 heterodimerization: luminescence-based cell-based high throughput dose response assay to identify agonists of 5-hydroxytryptamine (serotonin) 5A receptor (HTR5A). [Related pubchem assays (depositor defined):AID504326, AID504355, AID504692, AID504904, AID504905]; assay type: functional
Sequence of 5-hydroxytryptamine receptor 5A (P47898 whole entry): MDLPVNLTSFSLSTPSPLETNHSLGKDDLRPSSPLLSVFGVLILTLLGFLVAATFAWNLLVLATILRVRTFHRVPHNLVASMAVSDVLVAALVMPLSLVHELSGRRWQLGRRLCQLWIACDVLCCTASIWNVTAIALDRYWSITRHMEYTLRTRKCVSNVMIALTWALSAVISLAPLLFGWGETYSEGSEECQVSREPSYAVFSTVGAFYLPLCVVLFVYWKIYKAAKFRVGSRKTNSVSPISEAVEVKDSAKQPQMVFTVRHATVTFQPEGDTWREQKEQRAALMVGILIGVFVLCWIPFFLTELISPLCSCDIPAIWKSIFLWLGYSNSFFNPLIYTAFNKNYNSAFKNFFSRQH

T1 sequence (P11940 whole entry, the tested form may be a part): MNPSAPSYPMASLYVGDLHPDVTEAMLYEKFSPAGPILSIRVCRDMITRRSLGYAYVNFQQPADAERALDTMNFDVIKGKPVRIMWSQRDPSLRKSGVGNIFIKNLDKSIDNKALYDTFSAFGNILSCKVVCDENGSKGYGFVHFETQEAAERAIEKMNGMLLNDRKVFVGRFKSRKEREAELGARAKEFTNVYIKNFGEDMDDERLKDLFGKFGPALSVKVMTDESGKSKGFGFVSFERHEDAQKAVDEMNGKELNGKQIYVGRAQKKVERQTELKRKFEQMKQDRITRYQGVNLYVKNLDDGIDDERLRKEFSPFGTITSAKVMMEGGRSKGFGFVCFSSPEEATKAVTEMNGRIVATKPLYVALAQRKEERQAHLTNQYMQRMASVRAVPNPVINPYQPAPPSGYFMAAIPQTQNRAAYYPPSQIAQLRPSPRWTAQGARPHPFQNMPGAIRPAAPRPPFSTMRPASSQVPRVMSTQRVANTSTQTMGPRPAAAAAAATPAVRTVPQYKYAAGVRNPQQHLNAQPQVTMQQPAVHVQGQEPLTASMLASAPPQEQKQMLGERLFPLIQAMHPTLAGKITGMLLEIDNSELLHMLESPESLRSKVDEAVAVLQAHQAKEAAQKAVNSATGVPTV
Sequence of Melanocortin receptor 4 (P32245 whole entry): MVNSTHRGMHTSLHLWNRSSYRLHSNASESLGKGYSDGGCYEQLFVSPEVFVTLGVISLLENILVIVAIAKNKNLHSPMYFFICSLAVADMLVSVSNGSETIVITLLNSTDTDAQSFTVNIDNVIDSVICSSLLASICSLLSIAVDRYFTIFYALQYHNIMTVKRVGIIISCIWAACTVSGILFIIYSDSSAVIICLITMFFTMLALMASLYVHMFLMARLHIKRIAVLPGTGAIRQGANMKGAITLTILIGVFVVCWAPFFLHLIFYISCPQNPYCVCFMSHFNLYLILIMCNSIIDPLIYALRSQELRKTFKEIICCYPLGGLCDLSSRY
Sequence of Delta-type opioid receptor (P41143 whole entry): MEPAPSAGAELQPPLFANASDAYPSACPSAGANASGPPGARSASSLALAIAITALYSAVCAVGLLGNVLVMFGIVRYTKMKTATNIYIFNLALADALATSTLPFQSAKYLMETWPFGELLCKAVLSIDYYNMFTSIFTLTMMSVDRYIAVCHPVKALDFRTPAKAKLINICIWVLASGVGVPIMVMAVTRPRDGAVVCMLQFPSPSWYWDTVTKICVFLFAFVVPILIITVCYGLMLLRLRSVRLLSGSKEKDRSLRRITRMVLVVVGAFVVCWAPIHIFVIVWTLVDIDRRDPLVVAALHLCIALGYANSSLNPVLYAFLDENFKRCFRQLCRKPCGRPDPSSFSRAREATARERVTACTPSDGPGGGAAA
Sequence of Mu-type opioid receptor (P35372 whole entry): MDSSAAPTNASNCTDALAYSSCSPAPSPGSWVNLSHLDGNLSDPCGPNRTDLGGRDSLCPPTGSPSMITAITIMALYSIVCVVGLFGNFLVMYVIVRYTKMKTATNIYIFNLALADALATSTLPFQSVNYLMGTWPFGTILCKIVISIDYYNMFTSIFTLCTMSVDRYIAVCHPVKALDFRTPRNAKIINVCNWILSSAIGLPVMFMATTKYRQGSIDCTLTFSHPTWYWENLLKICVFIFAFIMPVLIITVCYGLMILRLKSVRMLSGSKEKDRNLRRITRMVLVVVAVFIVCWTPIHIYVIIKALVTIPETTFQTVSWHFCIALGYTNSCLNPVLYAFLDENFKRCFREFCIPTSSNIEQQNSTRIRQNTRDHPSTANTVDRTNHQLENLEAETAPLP

With `O=S1(=O)CCC(NC(=S)SCCOc2ccccc2)C1` (centres undefined) as the compound, how does the IC50 [1] read?
Its IC50 is > 66 µM (inactive).

What about the IC50 [2] of the same compound?
Its IC50 is > 66 µM (inactive).

What about the IC50 (Interleukin-8 [3]) of the same compound?
Its IC50 is 3.66 µM (active).

What about the IC50 (Interleukin-8 [4]) of the same compound?
Its IC50 is 3.07 µM (active).

Which EC50 (Melanocortin receptor 4) does the source give for `CCCCCCCCNS(=O)(=O)CCNCCc1ccccc1` here?
The EC50 was > 89.1 µM (inactive).

Which results are given for `O=C1NC(c2cccc(OCc3ccccc3)c2)Nc2ccccc21` (centres undefined)?
AC50 (HEK293): 84 µM (active); AC50 [5]: 2.82 µM (active)

For `CC(=O)Nc1cc(-c2cccc(F)c2)cn2c(-c3ccc(F)cc3)cnc12`, which EC50 (Melanocortin receptor 4) is on record?
Its EC50 is > 89.2 µM (inactive).

Which AC50 (HEK293) does the source give for `CCOc1ccc(-c2cc(C(=O)N/N=C/c3ccc(O)cc3)c3ccccc3n2)cc1` here?
Its AC50 is 5.12 µM (active).

And the CC50 (Vero)?
Its CC50 is 14.9 µM (active).

For `Cc1ccc(S(=O)(=O)Nc2ccc3c(c2)CC(=O)N([C@@H](C)CO)C[C@@H](C)[C@H](CN(C)Cc2ccccc2)O3)cc1`, which AC50 [6] is on record?
Its AC50 is 39 µM (inactive).

Which results are given for `CSCCC(/C(O)=C(\C#N)c1nc2ccccc2[nH]1)N1C(=O)c2ccccc2C1=O` (centres undefined)?
EC50 [7]: > 92.4 µM (inactive); EC50 (Mu-type opioid receptor): > 92.4 µM (inactive); EC50 [8]: > 92.4 µM (inactive)
